# Measured values from patent US9358224B2, “Pharmaceutical formulation comprising a phosphodiesterase inhibitor” (CHIESI FARMACEUTICI S.p.A., priority 2011, dated 2016).
# Experiment: Chemical stability study of the pMDI formulation at 25° C./60% RH
# Type: physicochemical
# Details: 1 and 3 months at 25° C./60% RH
# Procedure: Physical and chemical stability of the formulation reported in table 1 has been assessed in a stability study at 1 and 3 months at 25° C./60% relative humidity (RH).
# Chemical stability and performances data of the formulation are reported in Table 2, wherein “mean delivered dose intra-can” means the mean delivered dose of ten actuations on the same can (3 actuations at the beginning, 4 actuations in the middle and 3 actuations at the end of the life of the can).
structure (smiles),measurement,value
"CS(=O)(=O)Nc1ccc(C(=O)OC(Cc2c(Cl)c[n+]([O-])cc2Cl)c2ccc(OC(F)F)c(OCC3CC3)c2)cc1OCC1CC1 (single isomer, unassigned; (-)) [Compound C2, (−)-3-Cyclopropylmethoxy-4-methanesulfonylamino-benzoic acid 1-(3-cyclopropylmethoxy-4-difluoromethoxy-phenyl)-2-(3,5-dichloro-1-oxy-pyridin-4-yl)-ethyl ester]",chemical stability of C2 in the formulation (in words),no degradation during stability
